Measurements published in patent US7759337B2, “Phthalazine compounds and methods of use” (Amgen Inc., priority 2005, dated 2010).
pIC50: −log10 of the molar value.

system: production of TNF by monocytes activated with bacterial lipopolysaccharide (LPS); experiment: Lipopolysaccharide-activated monocyte TNF production assay; format: cell-based; conditions: Homo sapiens; whole blood monocyte assay (LPS induced TNF release)
Procedure, shortened: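 Adherent human PBMC-derived monocytes preincubated 60 min with nine two-fold compound dilutions, then stimulated with E. coli K532 LPS (30 ng/mL in the added medium) for 4 h at 37 °C. Supernatant TNF measured by sandwich ELISA; IC50 is the compound concentration halving TNF production, from second-order polynomial fits.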

Q: How did the pIC50 turn out when `Cc1ccc(C(N)=O)cc1-c1ccc2c(OCC(C)(C)C)nncc2c1` [Example 315, 4-methyl-3-[1-(neopentyloxy)phthalazin-6-yl]benzamide] was run?
A: ≥ 5.30

Q: `Cc1ccc(C(N)=O)cc1-c1ccc2c(OC3CCCN(C)C3)nncc2c1` (centres unmarked) [Example 316, 4-methyl-3-{1-[(1-methylpiperidin-3-yl)oxy]phthalazin-6-yl}benzamide] was tested. Which pIC50 did it give?
A: ≥ 5.30

Q: How did the pIC50 turn out when `Cc1ccc(C(=O)NC2CC2)cc1-c1ccc2c(OC3CCCN(C)C3)nncc2c1` (centres unmarked) [Example 317, N-cyclopropyl-4-methyl-3-{1-[(1-methylpiperidin-3-yl)oxy]phthalazin-6-yl}benzamide] was run?
A: ≥ 5.30

Q: `Cc1ccccc1Oc1nncc2cc(-c3c(C)ccc4c(NC5CC5)noc34)ccc12` [Example 318, N-cyclopropyl-6-methyl-7-[1-(2-methylphenoxy)phthalazin-6-yl]-1,2-benzisoxazol-3-amine] was tested. Which pIC50 did it give?
A: ≥ 5.30

Q: With `Cc1ccc(C(=O)NC2CC2)cc1-c1ccc2c(OC3CCN(C)CC3)nncc2c1` [Example 319, N-cyclopropyl-4-methyl-3-{1-[(1-methylpiperidin-4-yl)oxy]phthalazin-6-yl}benzamide] as the compound, how does the pIC50 read?
A: ≥ 5.30

Q: With `Cc1cc(F)ccc1Oc1nncc2cc(-c3cc(C(N)=O)ccc3C)ccc12` [Example 320, 3-[1-(4-fluoro-2-methylphenoxy)phthalazin-6-yl]-4-methylbenzamide] as the compound, how does the pIC50 read?
A: ≥ 5.30

Q: `Cc1ccc(Oc2nncc3cc(-c4cc(C(N)=O)ccc4C)ccc23)c(C)c1` [Example 321, 3-[1-(2,4-dimethylphenoxy)phthalazin-6-yl]-4-methylbenzamide] was tested. Which pIC50 did it give?
A: ≥ 5.30

Q: With `CC[C@H](C)Oc1nncc2cc(-c3cc(C(N)=O)ccc3C)ccc12` [Example 322, 4-methyl-3-(1-{[(1S)-1-methylpropyl]oxy}phthalazin-6-yl)benzamide] as the compound, how does the pIC50 read?
A: ≥ 5.30

Q: How did the pIC50 turn out when `Cc1ccc(C(N)=O)cc1-c1ccc2c(NC3CCCC3)nncc2c1` [Example 323, 3-[1-(cyclopentylamino)phthalazin-6-yl]-4-methylbenzamide] was run?
A: ≥ 5.30

Q: `CC[C@@H](C)Oc1nncc2cc(-c3cc(C(N)=O)ccc3C)ccc12` [Example 324, 4-methyl-3-(1-{[(1R)-1-methylpropyl]oxy}phthalazin-6-yl)benzamide] was tested. Which pIC50 did it give?
A: ≥ 5.30

Q: `Cc1ccc(C(=O)NC2CC2)cc1-c1ccc2c(NC3CCCC3)nncc2c1` [Example 325, 3-[1-(cyclopentylamino)phthalazin-6-yl]-N-cyclopropyl-4-methylbenzamide] was tested. Which pIC50 did it give?
A: ≥ 5.30

Q: With `Cc1ccc(C(=O)NC2CC2)cc1-c1ccc2c(OCC(C)(C)C)nncc2c1` [Example 326, N-cyclopropyl-4-methyl-3-[1-(neopentyloxy)phthalazin-6-yl]benzamide] as the compound, how does the pIC50 read?
A: ≥ 5.30

Q: `Cc1ccc(C(=O)NC2CC2)cc1-c1ccc2c(NC(C)(C)C)nncc2c1` [Example 327, 3-[1-(tert-butylamino)phthalazin-6-yl]-N-cyclopropyl-4-methylbenzamide] was tested. Which pIC50 did it give?
A: ≥ 5.30

Q: `CC[C@@H](C)Oc1nncc2cc(-c3cc(C(=O)NC4CC4)ccc3C)ccc12` [Example 328, N-cyclopropyl-4-methyl-3-(1-{[(1R)-1-methylpropyl]oxy}phthalazin-6-yl)benzamide] was tested. Which pIC50 did it give?
A: ≥ 5.30

Q: With `Cc1ccc(C(=O)NC2CC2)cc1-c1ccc2c(NC3CCOCC3)nncc2c1` [Example 329, N-cyclopropyl-4-methyl-3-[1-(tetrahydro-2H-pyran-4-ylamino)phthalazin-6-yl]benzamide] as the compound, how does the pIC50 read?
A: ≥ 5.30

Q: `CNc1noc2c(-c3ccc4c(O[C@@H](C)COC)nncc4c3)c(C)ccc12` [Example 330, N,6-dimethyl-7-(1-(((1S)-1-methyl-2-(methyloxy)ethyl)oxy)-6-phthalazinyl)-1,2-benzisoxazol-3-amine] was tested. Which pIC50 did it give?
A: ≥ 5.30

Q: With `CNc1noc2c(-c3ccc4c(OC(C)C)nncc4c3)c(C)ccc12` [Example 331, N,6-dimethyl-7-(1-((1-methylethyl)oxy)-6-phthalazinyl)-1,2-benzisoxazol-3-amine] as the compound, how does the pIC50 read?
A: ≥ 5.30

Q: How did the pIC50 turn out when `Cc1ccc(Oc2ccc3c(-c4ccccc4C)nncc3c2)cc1` [Example 332, 6-(4-methylphenoxy)-1-(2-methylphenyl)phthalazine] was run?
A: ≥ 5.30

Q: `Fc1ccc(Oc2ccc3c(-c4ccc(CN5CCOCC5)cc4)nncc3c2)cc1` [Example 333, 6-(4-fluorophenoxy)-1-[4-(morpholin-4-ylmethyl)phenyl]phthalazine] was tested. Which pIC50 did it give?
A: ≥ 5.30

Q: How did the pIC50 turn out when `COc1ccccc1-c1nncc2cc(Oc3ccc(C)cc3)ccc12` [Example 334, 1-(2-methoxyphenyl)-6-(4-methylphenoxy)phthalazine] was run?
A: ≥ 5.30

Q: How did the pIC50 turn out when `CS(=O)(=O)c1ccc(-c2nncc3cc(Oc4ccc(F)cc4)ccc23)cc1` [Example 335, 6-(4-fluorophenoxy)-1-[4-(methylsulfonyl)phenyl]phthalazine] was run?
A: ≥ 5.30

Q: With `Fc1ccc(Oc2ccc3c(N4CCOCC4)nncc3c2)cc1` [Example 336, 6-(4-fluorophenoxy)-1-morpholin-4-ylphthalazine] as the compound, how does the pIC50 read?
A: ≥ 5.30

Q: How did the pIC50 turn out when `Fc1ccc(Oc2ccc3c(-c4ccsc4)nncc3c2)cc1` [Example 337, 6-(4-fluorophenoxy)-1-thien-3-ylphthalazine] was run?
A: ≥ 5.30

Q: How did the pIC50 turn out when `Cc1ccccc1-c1nncc2cc(Oc3cccc(Cl)c3)ccc12` [Example 338, 6-(3-chlorophenoxy)-1-(2-methylphenyl)phthalazine] was run?
A: ≥ 5.30

Q: With `Fc1ccc(Oc2ccc3c(-c4ccccc4C(F)(F)F)nncc3c2)cc1` [Example 339, 6-(4-fluorophenoxy)-1-[2-(trifluoromethyl)phenyl]phthalazine] as the compound, how does the pIC50 read?
A: ≥ 5.30

Q: How did the pIC50 turn out when `Cc1ccccc1-c1nncc2cc(Oc3ccc(F)cc3)ccc12` [Example 340, 6-(4-fluorophenoxy)-1-(2-methylphenyl)phthalazine] was run?
A: ≥ 5.30

Q: How did the pIC50 turn out when `Cc1cc(F)ccc1-c1nncc2cc(Oc3ccc(F)cc3)ccc12` [Example 341, 1-(4-fluoro-2-methylphenyl)-6-(4-fluorophenoxy)phthalazine] was run?
A: ≥ 5.30

Q: With `COC(=O)c1ccccc1Oc1ccc2c(-c3ccccc3C)nncc2c1` [Example 342, methyl 2-{[1-(2-methylphenyl)phthalazin-6-yl]oxy}benzoate] as the compound, how does the pIC50 read?
A: ≥ 5.30

Q: With `Cc1ccccc1-c1nncc2cc(Oc3ccccc3C(=O)NC3CC3)ccc12` [Example 343, N-cyclopropyl-2-{[1-(2-methylphenyl)phthalazin-6-yl]oxy}benzamide] as the compound, how does the pIC50 read?
A: ≥ 5.30

Q: How did the pIC50 turn out when `Fc1ccc(Oc2ccc3c(-c4cn[nH]c4)nncc3c2)cc1` [Example 344, 6-(4-fluorophenoxy)-1-(1H-pyrazol-4-yl)phthalazine] was run?
A: ≥ 5.30

Q: How did the pIC50 turn out when `Cc1ccccc1-c1nncc2cc(Oc3ccc(F)cc3F)ccc12` [Example 345, 6-(2,4-difluorophenoxy)-1-(2-methylphenyl)phthalazine] was run?
A: ≥ 5.30

Q: With `Cc1ccc(Oc2ccc3c(-c4ccccc4Cl)nncc3c2)cc1` [Example 346, 1-(2-chlorophenyl)-6-(4-methylphenoxy)phthalazine] as the compound, how does the pIC50 read?
A: ≥ 5.30

Q: With `Cc1cc(F)ccc1-c1nncc2cc(Oc3ccccc3)ccc12` [Example 347, 1-(4-fluoro-2-methylphenyl)-6-phenoxyphthalazine] as the compound, how does the pIC50 read?
A: ≥ 5.30

Q: `O=C(O)Cc1ccc(-c2nncc3cc(Oc4ccc(F)cc4)ccc23)cc1` [Example 348, {4-[6-(4-fluorophenoxy)phthalazin-1-yl]phenyl}acetic acid] was tested. Which pIC50 did it give?
A: ≥ 5.30

Q: With `COc1ncccc1-c1nncc2cc(Oc3ccc(F)cc3)ccc12` [Example 349, 6-(4-fluorophenoxy)-1-(2-methoxypyridin-3-yl)phthalazine] as the compound, how does the pIC50 read?
A: ≥ 5.30
